The source of these data is ChEMBL document CHEMBL4229568, “Discovery of natural flavonoids as activators of Nrf2-mediated defense system: Structure-activity relationship and inhibition of intracellular oxidative insults” (Bioorg Med Chem, 2018).

Active and inactive are the calls of the source. No cut-off for these calls is given here.

Assay type in all cases: cell-based
The target of assay [1] is T1, Nuclear factor erythroid 2-related factor 2 (Mus musculus) (UniProt Q60795).
T1 sequence (whole entry): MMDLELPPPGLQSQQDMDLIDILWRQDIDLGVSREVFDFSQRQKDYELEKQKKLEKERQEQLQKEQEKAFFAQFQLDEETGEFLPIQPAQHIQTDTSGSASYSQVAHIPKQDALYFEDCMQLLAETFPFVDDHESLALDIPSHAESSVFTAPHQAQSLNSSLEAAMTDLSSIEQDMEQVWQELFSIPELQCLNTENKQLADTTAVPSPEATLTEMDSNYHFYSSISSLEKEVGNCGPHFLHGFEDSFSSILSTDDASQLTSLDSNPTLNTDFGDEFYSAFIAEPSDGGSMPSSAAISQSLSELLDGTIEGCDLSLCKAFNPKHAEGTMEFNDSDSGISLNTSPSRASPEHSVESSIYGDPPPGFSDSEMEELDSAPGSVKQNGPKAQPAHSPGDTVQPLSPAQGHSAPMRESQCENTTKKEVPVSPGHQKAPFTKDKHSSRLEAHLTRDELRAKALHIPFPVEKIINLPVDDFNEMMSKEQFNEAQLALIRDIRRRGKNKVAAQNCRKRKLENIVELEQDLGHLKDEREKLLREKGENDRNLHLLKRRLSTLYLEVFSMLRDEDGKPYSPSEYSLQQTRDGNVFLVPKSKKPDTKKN
In words: Activation of Nrf2 in mouse Heap1c1c7 cells assessed as induction of NAD(P)H:quinone reductase activity at 12.5 uM relative to control.

In assay [2] the target is T1, Nuclear factor erythroid 2-related factor 2 (Mus musculus). In words: Activation of Nrf2 in mouse Heap1c1c7 cells assessed as induction of NAD(P)H:quinone reductase activity at 100 uM relative to control.
For assay [3] the target is unchanged. In words: Activation of Nrf2 in mouse Heap1c1c7 cells assessed as induction of NAD(P)H:quinone reductase activity at 25 uM relative to control.
In assay [4] the target is T2, Nuclear factor erythroid 2-related factor 2 (Homo sapiens) (UniProt Q16236).
T2 sequence (whole entry): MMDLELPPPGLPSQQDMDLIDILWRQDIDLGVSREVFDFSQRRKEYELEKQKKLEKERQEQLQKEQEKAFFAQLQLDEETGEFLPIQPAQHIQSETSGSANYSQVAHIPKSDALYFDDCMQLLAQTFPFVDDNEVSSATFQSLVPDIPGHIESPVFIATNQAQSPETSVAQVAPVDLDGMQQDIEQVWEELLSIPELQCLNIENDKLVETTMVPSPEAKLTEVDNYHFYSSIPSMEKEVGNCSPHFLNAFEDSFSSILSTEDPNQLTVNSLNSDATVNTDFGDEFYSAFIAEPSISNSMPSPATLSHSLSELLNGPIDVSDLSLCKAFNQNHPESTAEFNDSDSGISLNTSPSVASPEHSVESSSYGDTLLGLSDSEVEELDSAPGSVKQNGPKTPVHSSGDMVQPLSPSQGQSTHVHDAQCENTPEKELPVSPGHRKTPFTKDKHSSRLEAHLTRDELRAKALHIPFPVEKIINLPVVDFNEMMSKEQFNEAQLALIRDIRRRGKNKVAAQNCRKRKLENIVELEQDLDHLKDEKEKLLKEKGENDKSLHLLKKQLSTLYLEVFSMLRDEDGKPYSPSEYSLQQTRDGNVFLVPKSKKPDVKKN
In words: Activation of Nrf2 in human BEAS2B cells assessed as upregulation of Nrf2 protein expression at 20 uM after 12 hrs by immunoblot analysis. (In general: A western blot detects proteins with antibodies after separation by electrophoresis.)

Assay [5] deals with T2, Nuclear factor erythroid 2-related factor 2 (Homo sapiens). As to the kind of experiment: Activation of Nrf2 in human BEAS2B cells assessed as upregulation of gamma-GCS protein expression at 20 uM after 12 hrs by immunoblot analysis.
For assay [6] the target is unchanged. As to the kind of experiment: Activation of Nrf2 in human BEAS2B cells assessed as upregulation of NQO1 protein expression at 20 uM after 12 hrs by immunoblot analysis.
The target in assay [7] is T1, Nuclear factor erythroid 2-related factor 2 (Mus musculus). In words: Activation of Nrf2 in mouse Heap1c1c7 cells assessed as induction of NAD(P)H:quinone reductase activity at 50 uM relative to control.

In the case of `C/C(=C/Cc1c(O)ccc(C(=O)/C=C/c2ccc(O)cc2)c1O)CC(=O)/C=C/c1ccc(O)cc1`, in assay [1], the fold change (FC) amounted to 1.31.

Regarding `C/C(=C/Cc1c(O)ccc(C(=O)/C=C/c2ccc(O)cc2)c1O)CO`, the fold change (FC) in assay [2] is 1.52.

Take `C/C(=C/Cc1c(O)ccc(C(=O)/C=C/c2ccc(O)cc2O)c1O)CC(=O)/C=C/c1ccc(O)cc1`: the fold change (FC) in assay [3] worked out at 1.39.

As for `C/C(=C\Cc1c(O)ccc(C(=O)/C=C/c2ccc(O)cc2)c1O)CC(=O)/C=C/c1ccc(O)cc1`, the fold change (FC) in assay [3] stood at 1.57.

In the case of `C/C(=C\Cc1c(O)ccc(C(=O)/C=C/c2ccc(O)cc2)c1O)CO`, the fold change (FC) in assay [2] was 1.43.

Consider `C/C(=C\Cc1c(O)ccc(C(=O)/C=C/c2ccc(O)cc2O)c1O)CO`, for which the fold change (FC) in assay [2] was 1.61.

In the case of `CC(C)(C)c1cc(O)ccc1O`, the outcome in assay [4], in assay [5] and in assay [6] was Active.

For `CC(C)/C=C/c1c(O)cc2oc(-c3ccc(O)cc3O)c(/C=C/C(C)C)c(=O)c2c1O`, the fold change (FC) in assay [3] is 1.4.

Consider `CC(C)=CCc1c(-c2ccc(O)cc2O)oc2cc(O)cc(O)c2c1=O`, for which the fold change (FC) in assay [2] was 1.31.

For the compound `CC(C)=CCc1c(O)cc2oc(-c3ccc(O)cc3O)c(/C=C/C(C)C)c(=O)c2c1O`, the fold change (FC) in assay [7] amounted to 1.86.

Turning to `CC(C)=CCc1c(O)cc2oc3c(c(=O)c2c1O)C(C=C(C)C)Oc1cc(O)ccc1-3` (stereo unspecified), the fold change (FC) in assay [2] stood at 1.31.

Take `CC(C)=CCc1c(O)ccc(C(=O)/C=C/c2ccc(O)cc2)c1O`: the fold change (FC) in assay [7] was determined as 1.69.

`CC(C)=CCc1c(O)ccc(C(=O)/C=C/c2ccc(O)cc2O)c1O`: the fold change (FC) in assay [2] came out at 1.34.

As to `CC(C)=CCc1c(O)ccc2c1OC(c1ccc(O)cc1O)CC2=O` (stereo unspecified), the fold change (FC) in assay [2] is 1.75.

Regarding `COc1cc(/C=C/C(=O)C/C(C)=C/Cc2c(O)ccc(C(=O)/C=C/c3ccc(O)cc3)c2O)ccc1O`, the fold change (FC) in assay [3] came out at 1.49.

Consider `COc1cc(/C=C/C(=O)C/C(C)=C\Cc2c(O)ccc(C(=O)/C=C/c3ccc(O)cc3)c2O)ccc1O`, for which the fold change (FC) in assay [1] came to 1.46.

Consider `COc1cc([C@@H]2CC(=O)c3c(O)cc(O)cc3O2)ccc1O`, for which the fold change (FC) in assay [7] came out at 1.51.

Regarding `COc1ccc([C@@H]2CC(=O)c3c(cc(OC)c(OC)c3OC)O2)cc1OC`, in assay [2], the fold change (FC) was found to be 1.81.

For the compound `O=C1CC(c2ccc(O)c(O)c2)Oc2cc(O[C@@H]3O[C@H](CO)[C@@H](O)[C@H](O)[C@H]3O)cc(O)c21` (stereo partly specified), in assay [2], the fold change (FC) is 1.66.

For the compound `O=C1C[C@@H](c2ccc(O)c(O)c2)Oc2cc(O)cc(O)c21`, the fold change (FC) in assay [7] came to 1.36.

Consider `O=C1c2c(O)cc(O)cc2OC(c2ccc(O)cc2)C1O` (stereo unspecified), for which the fold change (FC) in assay [2] was 1.49.

Consider `O=c1c(O)c(-c2ccc(O)c(O)c2)oc2cc(O)cc(O)c12`, for which, in assay [1], the fold change (FC) turned out to be 1.36.

On to `O=c1c(O)c(-c2ccc(O)cc2)oc2cc(O)cc(O)c12`, for which the fold change (FC) in assay [7] was found to be 1.51.

For `O=c1cc(-c2ccc(O)c(-c3c(O)cc(O)c4c(=O)cc(-c5ccc(O)cc5)oc34)c2)oc2cc(O)cc(O)c12`, the fold change (FC) in assay [7] stood at 1.42.
